Laboratory results published in patent US7556928B2, “Method of screening a population of cells” (One Cell Systems, Inc., priority 2001, dated 2009).

Tests used:
CRL-8018 hybridoma cells [1] = test: In-vitro induced IgG isotype switching by sequential sublining and mIgG ELISA; type: cell-based, mouse; conditions: retinoic acid 100 nM
Method: Induction of Class-Switching Using CRL-8018 cell line, we investigated and evaluated methods of increasing the number class-switching events in-vitro. Cells were plated in 75 cm^2 flasks or in 12-well plates at 1×10^4/ml and incubated for 7 days in complete growth medium supplemented with:
Determination of In-vitro Induced Switching Rate Using Sequential Sublining CRL-8018 cells were resuspended in growth medium supplemented with mitogen(s)/growth factors as described above and plated out in ten 96-well plates at a density of 1,000 cells/well. Cells were cultured at 37° C., 5% CO2 in a humid incubator for 5 days. Cell culture supernates were collected and an isotype-specific ELISA performed. Briefly, 96-well flexible assay plates, previously coated with 10μg/plate of purified goat anti-mouse IgG (Jackson Immunochemicals) in 20 mM NaHCO3 (Sigma-Aldrich), 50 μl/well, were incubated overnight at 4° C. and then washed 3 times in Dulbecco's phosphate buffered saline without calcium and magnesium/0.2% Tween 20 (DPBS-/Tween) (Sigma-Aldrich). Non-specific protein binding sites were blocked using PBS+1% BSA, 200 μl/well for 2 hr at room temperature (RT).
100 μl of each of the culture supemates were harvested and incubated in the anti-IgG coated plates for 2 hr at RT. The assay plates were washed three times in DPBS-/Tween, and 50 μl of HRP conjugated goat anti-mouse IgG (Jackson Immunochemicals) diluted 1:100 in PBS/Tween were applied to each well and incubated at RT for 1 hr. Plates were washed again and developed using 100 μl of TMB substrate solution (Sigma-Aldrich). The reaction was halted with 0.5M H2SO4 (Sigma-Aldrich) and plates were read at […] on an ELx800 ELISA plate reader (Bio-TEK Instruments, Inc.). Five rounds of the above procedure were performed to determine the switching rate.
11. Detection of In-vitro Induced IgG Isotype Switching Rate Among CRL-8018 Hybridoma Cells Using Sequennal Sublining Experiments were performed with CRL-8018 hybridoma cell line as described in Materials and Methods. […] Sequental sublining was performed as described in Materials and Methods. 1×10^6 cells were resuspended in 200 ml of growth medium supplemented with 100 nM of retinoic acid (5×10^3/ml) and plated out in ten 96-well plates at a density of 1,000 cells/well (0.2 ml/well). After 5 days of incubation at 37° C. and 5% CO2, mIgG isotype specific ELISA was performed with cell culture supemates. Cells from two positive wells were plated out in 96-well plates at a density of 100 cells/well (25 plates). Five rounds of the above procedure were performed: 1,000 cells/well, 100 cells/well, 10 cells/well, and 1 cell/well. […] About two months, 110 plates and 10,560 supemates for mIgG isotype specific ELISA were required for the assay.

CRL-8018 hybridoma cells [2] = test: Microdrop isotype capture and isolation assay (FACS); type: cell-based, mouse; conditions: 100 nM
Method: Determination of Spontaneous and In-vitro Stimulated Switching Rate Using the Microdrop Isotype Capture and Isolation Assay Due to the low rate of isotype switching, analysis of large cell populations is necessary. —We, therefore, used a modified microdrop encapsulation protocol to isolate spontaneous or in-vitro induced rare IgG isotype switch variants among IgM secreting hybridoma cells. If the IgG concentration in supernatants was <0.1 μg/ml, we initially encapsulated multiple cells, followed by single cell encapsulation. In all cases, if,after in-vitro induction, the concentration of secreted IgG in supernatants was >0.1 μg/ml, one round of single cell encapsulation was sufficient for discriminating and sorting a small sub-population of positive cells.
Two aliquots of 500 μl melted CelBioGel-3™ were vortexed with 25 μl of 10% Pluronic F-68 solution (Sigma-Aldrich), equilibrated at 37° C. for 3 min and then each was mixed with at least 2×10^6 hybridoma cells in […] of growth medium. These mixtures were added to 15 ml prewarmed CelMix™, covered and shaken vigorously 10 times to form an emulsion. Then the vial was attached to CellSys100™ Microdrop Maker (One Cell Systems, Inc) and the emulsion was mixed at 1800 rpm for 1 min at RT, then 1800 rpm for 1 min at 0° C., and subsequently 1000 rpm for 6 min at 0° C. Microdrops were washed three times in DPBS to remove oil and then incubated in 7 ml DPBS containing streptavidin (Sigma-Aldrich) at a final concentration of 10 μg/ml for 10 min at RT.
After incubating with streptavidin, microdrops were washed three times by resuspending in 15 ml DPBS- followed by centrifugation at 1500 rpm for 5 min and then incubated with 10 μg/ml of biotinylated goat anti-mouse IgG for 10 min. Microdrops were again washed three times in DPBS- (as above) and resuspended in 20 ml of prewarmed growth medium and incubated at 37° C. for 2 hr for antibody secretion by the encapsulated cells. After incubation, microdrops were pelleted by centrifugation at 1500 rpm for 5 min, resuspended in cold DPBS- and labelled with 10 μg/ml of FITC-conjugated goat anti-mouse IgG-specific antibody (Jackson Immunochemicals). microdrops were washed twice in HBSS, resuspended in 2 ml of growth medium and sorted using a Coulter EPICS Elite; gating was set to sort only highly positive microdrops, based on controls.
To determine spontaneous and in-vitro induced switching rate using the microdrop isotype capture and isolation assay, CRL-8018 hybridoma cells were plated out in two 75 cm^2 flasks or two 12-well plates (2 ml/well) at a density of 1×10^4 cells/ml in complete growth medium alone or in the presence of stimulators as described above. Cells were cultured at 37° C., 5% CO2 in a humid incubator for 5 days. Cell culture supemates were harvested and IgM and/or IgG production was tested using IsoStip™ or an ELISA-based mouse Isotyping kit (Zymed, Inc.). All cells from 75 cm2 flasks and from wells positive for IgG production were pooled, resuspended in 100-200 μl of growth medium and encapsulated in microdrops. The first round of isotype capture and isolation enrichment with multiple occupied microdrops was then performed, as described above. After sorted cells were propagated in culture for 5 days, the second round of the assay was performed usingmicrodrops occupied by single cells. After isolation by FACS, IgG secretors were plated out in 96-well plates, 1 cell/well. The number of recovered clones was estimated using supernatant ELISA after incubating plates at 37° C. in 5% C02 for 14 days.
Fluorescence Activated Cell Sorting Cell sorting was performed using an EPICS Elite™ Coulter Corp. with a 100 μm flow nozzle. FITC-labelled detection regents were excited by the 488 nm spectral line of an argon laser. Green (FITC) fluorescence was collected using a 525 nm, long pass band filter. For statistical analysis, EPICS Elite 4.02 software was used. […]

[3] = after first round with 25 × 10^6 cells
[4] = second round, highest-fluorescence sub-population

With CC1=C(/C=C/C(C)=C/C=C/C(C)=C/C(=O)O)C(C)(C)CCC1 [retinoic acid] the “rate of isotype switching” value (CRL-8018 hybridoma cells [1]) was ~0.0006%, the “% positive wells” value (CRL-8018 hybridoma cells [1]; 1 cell/well, of 2400 wells) was 91.2% and the “% positive wells” value (CRL-8018 hybridoma cells [1]; 10 cells/well, of 2400 wells) was 23.5%. The “% positive wells” value (CRL-8018 hybridoma cells [1]; 100 cells/well, of 2400 wells) was 12.4%, the “% positive wells” value (CRL-8018 hybridoma cells [1]; 1,000 cells/well, of 960 wells) was 0.6% and the mIgG positive wells (CRL-8018 hybridoma cells [1]; plating density 1 cell/well) was 2188. For the same molecule, the mIgG positive wells (CRL-8018 hybridoma cells [1]; plating density 10 cells/well) was 564, the mIgG positive wells (CRL-8018 hybridoma cells [1]; plating density 100 cells/well) was 298 and the mIgG positive wells (CRL-8018 hybridoma cells [1]; plating density 1,000 cells/well) was 6. The “First round of FACS, FITC MFI” value (CRL-8018 hybridoma cells [2]; 2 × 10^6 cells, single cell encapsulation) was 320.65, the “First round of FACS, % positive events detected” value (CRL-8018 hybridoma cells [2]; 2 × 10^6 cells, single cell encapsulation, 1 cell per GMD) was 0.15% and the “First round of FACS, FITC MFI” value (CRL-8018 hybridoma cells [2]; 25 × 10^6 cells, multiple cell encapsulation) was 17.93. For the same molecule, the “First round of FACS, % positive events detected” value (CRL-8018 hybridoma cells [2]; 25 × 10^6 cells, multiple cell encapsulation, 2.5 cells per GMD) was 0.09%, the “Sequential second round of FACS of single occupied GMDs, % positive events detected” value (CRL-8018 hybridoma cells [2]; [3]) was 36.4% and the “Sequential second round of FACS of single occupied GMDs, FITC MFI” value (CRL-8018 hybridoma cells [2]; [3]) was 11.3. The “Sorted GMDs % pos” value (CRL-8018 hybridoma cells [2]; [4]) was 2.9% and the “Sorted GMDs MFI” value (CRL-8018 hybridoma cells [2]; [4]) was 75.2.
